Test results: EP0329905A1, “Use of quinolizine and quinolizinone derivatives in the manufacture of medicaments for increasing gastric motility” (MERRELL DOW PHARMACEUTICALS INC., priority 1988, dated 1989)
Counter-ions that a name gives are not always drawn.

Test system: Von Bezold-Jarisch Reflex induced by 5-HT
Assay: Von Bezold-Jarisch Reflex induced by 5-HT injected intravenously into the rat
Type: in vivo
Text: The activity of these compounds against 5-HT can be assessed in vivo by measurement of the effect of the compound on the Von Bezold-Jarisch Reflex induced by 5-HT injected intravenously into the rat (see Paintal A.S., Physiol. Rev. 53, 159-227, 1973; J.R. Fozard, Naunyn-Schmiedeberg's Arch. Pharmacol., 326, 1984, 36-44). The transient cardiac slowing arises from an increased afferent vagus activity arising from stimulation by 5-HT of sensory afferent fibers in and around the heart.

[1] = doses of 0.01-0.1 mg/kg given intravenously
[2] = doses of 0.25-1 mg/kg given orally

SMILES | suppression of the Von Bezold-Jarisch Reflex induced by 5-HT [1] | suppression of the Von Bezold-Jarisch Reflex induced by 5-HT [2]
Cc1cc(C)cc(C(=O)OC2CC3CC4CC(C2)N3CC4=O)c1 (stereo not drawn) [endo-8-(3,5-dimethylbenzoyloxy)hexahydro-2,6-methano-2H-quinolizin-3(4H)-one hydrochloride] | suppressed the response dose-dependently | suppressed the response dose-dependently
O=C(OC1CC2CC3CC(C1)N2CC3=O)c1c[nH]c2ccccc12 (stereo not drawn) [endo-hexahydro-8-(3-indolylcarbonyloxy)-2,6-methano-2H-quinolizin-3(4H)one hydrochloride] | suppressed the response dose-dependently | suppressed the response dose-dependently
